# Source: patent publication US20130261130A1, “NEUROTRYPSIN INHIBITORS” (priority 2010, published 2013)
# Target: T1, human neurotrypsin (Homo sapiens, UniProt P56730)
# T1 sequence (P56730 21-875): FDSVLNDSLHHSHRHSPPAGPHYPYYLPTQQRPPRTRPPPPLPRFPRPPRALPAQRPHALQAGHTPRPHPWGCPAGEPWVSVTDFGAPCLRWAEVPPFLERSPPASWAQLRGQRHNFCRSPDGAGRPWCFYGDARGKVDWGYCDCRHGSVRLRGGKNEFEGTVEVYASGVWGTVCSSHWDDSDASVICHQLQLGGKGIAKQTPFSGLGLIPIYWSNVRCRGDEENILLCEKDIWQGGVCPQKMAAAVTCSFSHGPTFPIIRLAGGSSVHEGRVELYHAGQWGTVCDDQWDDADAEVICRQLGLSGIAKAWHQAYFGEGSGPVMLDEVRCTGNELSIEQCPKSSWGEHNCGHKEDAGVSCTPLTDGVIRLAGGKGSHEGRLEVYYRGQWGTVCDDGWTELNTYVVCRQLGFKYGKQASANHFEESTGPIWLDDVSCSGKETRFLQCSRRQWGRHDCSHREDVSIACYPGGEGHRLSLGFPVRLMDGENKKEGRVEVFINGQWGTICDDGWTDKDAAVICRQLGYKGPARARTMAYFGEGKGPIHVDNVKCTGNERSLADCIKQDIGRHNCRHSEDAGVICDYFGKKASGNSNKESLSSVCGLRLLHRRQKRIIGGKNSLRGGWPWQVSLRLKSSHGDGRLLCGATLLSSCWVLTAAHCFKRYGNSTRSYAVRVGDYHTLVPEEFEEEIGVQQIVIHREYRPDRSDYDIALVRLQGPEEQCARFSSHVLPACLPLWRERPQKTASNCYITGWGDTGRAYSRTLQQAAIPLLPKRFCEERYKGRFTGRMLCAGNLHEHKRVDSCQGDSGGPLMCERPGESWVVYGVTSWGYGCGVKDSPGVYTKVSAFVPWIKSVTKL
# Assay: Determination of IC50 for human neurotrypsin
# Type: biochemical
# Conditions: human neurotrypsin; method of WO 2006/1103261; read-out: Neurotrypsin IC50
# Method: Assessment of the potency of compounds of examples 1-311 in inhibiting the enzymatic activity of human neurotrypsin was performed according to the method described in patent application WO 2006/1103261
row,Molecule,IC50
1,O=C(Nc1ccc(Cl)cc1)c1cc(NC(=O)c2sc3ccccc3c2Cl)c(C(=O)O)cc1O [Example 303],5.5 µM
2,O=C(Nc1cccc(Oc2ccccc2)c1)c1ccc(C(=O)O)c(NC(=O)c2sc3ccccc3c2Cl)c1 [Example 65],7.3 µM
3,COc1ccc(-c2ccc(C(=O)O)c(NC(=O)c3sc4ccccc4c3Cl)c2)cc1 [Example 249],2.8 µM
4,O=C(NC1CCCc2ccccc21)c1ccc(NC(=O)c2ccc(-c3ccc(Cl)cc3)s2)c(C(=O)O)c1 (centres unmarked) [Example 112],5 µM
5,O=C(O)c1cc(C(=O)N2CCC(c3ccc(F)cc3)CC2)ccc1NC(=O)c1sc2ccccc2c1Cl [Example 113],2.7 µM
6,O=C(O)c1cc(N2CC(c3ccc(Cl)cc3)CC2=O)ccc1NC(=O)c1sc2ccccc2c1Cl (centres unmarked) [Example 287],4.3 µM
7,CCCCCCCNC(=O)c1ccc(NC(=O)c2ccc(-c3nc4cc(Cl)c(Cl)cc4[nH]3)cc2)c(C(=O)O)c1 [Example 137],2.4 µM
8,"O=C(NCc1ccc(Cl)cc1)c1ccc(C(=O)O)c(NC(=O)c2sc3ccccc3c2Cl)c1 [Example 148, 2-(3-Chloro-benzo[b]-thiophene-2-carboxamido)-4-(4-chlorobenzylcarbamoyl)-benzoic acid]",4.3 µM
9,O=C(O)c1ccc(N2CC(c3ccc(Cl)cc3)CC2=O)cc1NC(=O)c1sc2ccccc2c1Cl (centres unmarked) [Example 282],11.3 µM
10,CCCCc1ccc(NC(=O)c2ccc(NC(=O)c3ccc(-c4nc5cc(Cl)c(Cl)cc5[nH]4)cc3)c(C(=O)O)c2)cc1 [Example 129],1 µM
11,O=C(Nc1ccc(Cl)cc1)c1ccc(C(=O)O)c(NC(=O)c2cc3ccc(Cl)cc3s2)c1 [Example 23],2.6 µM
12,COc1ccc(-c2ccc(C(=O)O)c(NC(=O)c3ccc(-c4nc5cc(Cl)c(Cl)cc5[nH]4)cc3)c2)cc1 [Example 266],3.7 µM
13,O=C(Nc1ccc(Oc2cccnc2)c(Cl)c1)c1ccc(C(=O)O)c(NC(=O)c2sc3ccccc3c2Cl)c1 [Example 85],2.3 µM
14,"O=C(O)c1cc(C(=O)N2CCC(c3c(Cl)cccc3Cl)CC2)ccc1NC(=O)c1sc2ccccc2c1Cl [Example 35, 2-(3-Chlorobenzo[b]-thiophene-2-carboxamido)-5-(4-(2,6-dichlorophenyl)-piperidine-1-carbonyl)benzoic acid]",3.2 µM
15,O=C(O)c1cc(C(=O)N2CCC(c3ccc(O)cc3)CC2)ccc1NC(=O)c1sc2ccccc2c1Cl [Example 122],9.4 µM
16,O=C(O)c1ccc(C(=O)N2CCC(O)(c3ccc(Cl)cc3)CC2)cc1NC(=O)c1sc2ccccc2c1Cl [Example 99],6.9 µM
17,O=C(Nc1ccc(Cl)cc1)c1ccc(NC(=O)c2[nH]c3ccc(Cl)cc3c2-c2ccccc2)c(C(=O)O)c1 [Example 134],1.9 µM
18,O=C(O)c1ccc(-c2cn(Cc3c(F)cccc3F)nn2)cc1NC(=O)c1sc2ccccc2c1Cl [Example 260],11 µM
19,"O=C(Nc1nc2ccc(Cl)cc2s1)c1ccc(C(=O)O)c(NC(=O)c2sc3ccccc3c2Cl)c1 [Example 87, 2-(3-Chlorobenzo[b]-thiophene-2-carboxamido)-4-(6-chlorobenzo[d]thiazol-2-yl-carbamoyl)benzoic acid]",4.3 µM
20,"O=C(O)c1ccc(-c2cn(-c3ccc(Cl)cc3)nn2)cc1NC(=O)c1sc2ccccc2c1Cl [Example 257, 2-(3-Chlorobenzo[b]thiophene-2-carboxamido)-4-(1-(4-chlorophenyl)-1H-1,2,3-triazol-4-yl)benzoic acid]",3.8 µM
21,CC(NC(=O)c1ccc(NC(=O)c2ccc(-c3nc4cc(Cl)c(Cl)cc4[nH]3)cc2)c(C(=O)O)c1)c1ccc(Cl)cc1 (centres unmarked) [Example 133],1.9 µM
22,"O=C(Nc1nccs1)c1ccc(C(=O)O)c(NC(=O)c2sc3ccccc3c2Cl)c1 [Example 52, 2-(3-Chlorobenzo[b]thiophene-2-carboxamido)-4-(thiazol-2-ylcarbamoyl)-benzoic acid]",15.4 µM

row,Molecule,IC50
1,"O=C(Nc1ccc(Cl)cc1)c1ccc(C(=O)O)c(NC(=O)c2ccc(-c3nc4cc(Cl)c(Cl)cc4[nH]3)cc2)c1 [Example 40, 4-(4-Chlorophenyl-carbamoyl)-2-(4-(5,6-di-chloro-1H-benzo[d]imidazol-2-yl)benzamido)benzoic acid]",0.8 µM
2,O=C(Nc1ccc(Cl)cc1F)c1ccc(NC(=O)c2[nH]c3ccc(Cl)cc3c2-c2ccccc2)c(C(=O)O)c1 [Example 140],0.9 µM
3,"O=C(Nc1ccc(C(=O)N2CCC(c3ccc(F)cc3)CC2)cc1C(=O)O)c1ccc(-c2nc3cc(Cl)c(Cl)cc3[nH]2)cc1 [Example 38, 2-(4-(5,6-Dichloro-1H-benzo[d]imidazol-2-yl)-benzamido)-5-(4-(4-fluorophenyl)piperidine-1-carbonyl)benzoic acid]",4.8 µM
4,"O=C(Nc1ccc(Cl)cc1)c1ccc(C(=O)O)c(NC(=O)c2ccc(-c3ccccn3)s2)c1 [Example 144, 4-(4-Chlorophenyl-carbamoyl)-2-(5-(pyrid-2-yl)-thiophene-2-carboxamido)-benzoic acid]",22.1 µM
5,COc1ccc(CC2CCN(C(=O)c3ccc(NC(=O)c4sc5ccccc5c4Cl)c(C(=O)O)c3)CC2)cc1 [Example 117],2.9 µM
6,O=C(O)c1ccc(/C=C/Cc2ccccc2)cc1NC(=O)c1sc2ccccc2c1Cl [Example 246],98.4 µM
7,"O=C(COc1ccc(NC(=O)c2ccc(-c3nc4cc(Cl)c(Cl)cc4[nH]3)cc2)c(C(=O)O)c1)Nc1ccc(Cl)cc1 [Example 311, 5-(4-Chlorophenylcarbamoylmethoxy)-2-(4-(5,6-dichloro-1H-benzo[d]imidazol-2-yl)benzamido)benzoic acid]",0.5 µM
8,"COc1ccc2c(Cl)c(C(=O)Nc3cc(C(=O)Nc4ccc(Cl)cc4)ccc3C(=O)O)sc2c1 [Example 142, 2-(3-Chloro-6-methoxy-benzo[b]thiophene-2-carbox)-4-(4-chlorophenylcarbamoyl)-benzoic acid]",2.2 µM
9,Cn1c(-c2ccc(C(=O)Nc3ccc(C(=O)Nc4ccc(Cl)cc4)cc3C(=O)O)cc2)nc2cc(Cl)c(Cl)cc21 [Example 135],0.9 µM
10,2-(6-Chlorobenzo[b]-thiophene-2-carboxamido)-5-((5-chlorothiophen-2-yl-methyl)carbamoyl)benzoic acid [Example 107],4.8 µM
11,"5-(N-4-Butylphenyl-N-methyl-carbamoyl)-2-(4-(5,6-dichloro-1H-benzo[d]-imidazol-2-yl)benzamido)-benzoic acid [Example 44]",1.6 µM
12,"O=C(O)c1ccc(C(=O)Nc2ccc(Cl)cc2)c(NC(=O)c2sc3ccccc3c2Cl)c1 [Example 188, 3-(3-Chlorobenzo[b]-thiophene-2-carboxamido)-4-(4-chlorophenylcarbamoyl)-benzoic acid]",6.8 µM
13,O=C(NCc1ccc(Cl)s1)c1ccc(C(=O)O)c(NC(=O)c2sc3ccccc3c2Cl)c1 [Example 90],4.9 µM
14,"O=C(Nc1ccc(Cl)cc1F)c1ccc(C(=O)O)c(NC(=O)c2sc3ccccc3c2Cl)c1 [Example 5, 2-(3-Chlorobenzo[b]-thiophene-2-carboxamido)-4-(4-chloro-2-fluoro-phenyl-carbamoyl)benzoic acid]",1.9 µM
15,"O=C(Nc1ccc(Cl)cc1)c1ccc(NC(=O)c2sc3ccccc3c2Cl)c(C(=O)O)c1 [Example 26, 2-(3-Chlorobenzo[b]-thiophene-2-carboxamido)-5-(4-chlorophenylcarbamoyl)-benzoic acid]",3.2 µM
16,"CN(CC1CCCCC1)C(=O)c1ccc(NC(=O)c2ccc(-c3nc4cc(Cl)c(Cl)cc4[nH]3)cc2)c(C(=O)O)c1 [Example 49, 5-(N-Cyclohexylmethyl-N-methylcarbamoyl)-2-(4-(5,6-dichloro-1H-benzo[d]-imidazol-2-yl)benzamido)-benzoic acid]",6.6 µM
17,"O=C(Nc1ccc(Cl)cc1)c1ccc(NC(=O)c2ccc(-c3cccs3)cc2O)c(C(=O)O)c1 [Example 120, 5-(4-Chlorophenyl-carbamoyl)-2-(2-hydroxy-4-(thiophen-2-yl)benzamido)-benzoic acid]",4.1 µM
18,"O=C(Nc1ccc(Cl)cn1)c1ccc(C(=O)O)c(NC(=O)c2sc3ccccc3c2Cl)c1 [Example 16, 2-(3-Chlorobenzo[b]-thiophene-2-carboxamido)-4-(5-chloropyridin-2-yl-carbamoyl)benzoic acid]",8 µM
19,COc1ccc(C2CCN(C(=O)c3ccc(NC(=O)c4sc5ccccc5c4Cl)c(C(=O)O)c3)CC2)cc1 [Example 116],2.4 µM
20,"O=C(Nc1ccc(C(=O)N2CCC(Oc3ccccc3)CC2)cc1C(=O)O)c1cc2ccc(Cl)cc2s1 [Example 160, 2-(6-Chlorobenzo[b]thiophene-2-carboxamido)-5-(4-phenoxypiperidine-1-carbonyl)benzoic acid]",3.9 µM
21,O=C(O)c1cc(C(=O)N2CCC(Cc3ccc(F)cc3)CC2)ccc1NC(=O)c1sc2ccccc2c1Cl [Example 114],3 µM
22,O=C(O)c1ccc(NC(=O)N2CCC(c3ccccc3)CC2)cc1NC(=O)c1sc2ccccc2c1Cl [Example 279],5.4 µM
